# Laboratory results from PMC9688475, “Identification and Analysis of Small Molecule Inhibitors of CRISPR-Cas9 in Human Cells” (Cells, 2022).
# Where “and” joins values, the source holds several entries; their conditions need not be identical. Equal values may be shown once.
# Key:
# LbCas12a = LbCas12a in vitro cleavage assay; type: biochemical; conditions: 100 μM
# Method: In vitro cleavage experiments were performed using purified recombinant LbCas12a proteins similar to SpCas9 cleavage assays. LbCas12a proteins (50 nM), crRNA (50 nM), and different concentrations of the inhibitor compounds were mixed in NEBuffer 2 (New England Biolabs). After incubation at room temperature for 10 min, ScaI-linearized pUC19 DNA was added to a final concentration of 1.52 nM. The solution was vortex mixed and centrifuged, then incubated for 45 min in a water bath at 37 °C. The reaction was quenched with 0.5 μL proteinase K for 15 min at 56 °C. The samples were mixed with DNA loading buffers and resolved by 1.2% TAE agarose gel electrophoresis. Gel bands were visualized by Chemidoc XRS plus system (Bio-Rad, Hercules, CA, USA).
# SpCas9–gRNA complex [1] = target: T1, SpCas9–gRNA complex (Streptococcus pyogenes serotype M1, UniProt Q99ZW2); assay: Competitive fluorescence polarization assay, SpCas9-gRNA; type: binding
# T1 construct: His6 (N); TEV site (N); made in house; host or cells: E. coli BL21 Star (DE3)
# dSpCas9–gRNA complex = assay: Competitive fluorescence polarization assay, dSpCas9-gRNA; type: binding, Streptococcus pyogenes; conditions: FITC-DNA 25 nM, compounds 50 μM, PAM-DNA 1.25 μM
# SpCas9–gRNA complex [2] = target: T1, SpCas9–gRNA complex; assay: Microscale thermophoresis (MST), SpCas9-gRNA RNP; type: binding; conditions: SpCas9-EGFP/gRNA RNP (1:1) 200 nM, 25 °C
# Method: (§1) The MST method was carried out similar to the previous report. The binding ability of the compounds to SpCas9 in different states was tested by Monolith NT.115 (NanoTemper Technologies, Munich, Germany). The SpCas9-EGFP fusion protein or the SpCas9-EGFP/gRNA RNP complex (protein: gRNA = 1:1) was diluted with a binding buffer (50 mM Tris-HCl, pH 7.4, 150 mM NaCl, 0.05% Tween-20, and 10 mM MgCl2) to make a final concentration of 200 nM. The protein diluent was mixed with the compound diluent in equal volume. The mixture was kept at room temperature for 10 min. Then the sample was loaded into the NanoTemper standard capillaries. All experiments were carried out at 25 °C, 80% MST power, and 50% LED power. The data were analyzed with the NanoTemper MO affinity analysis software (NanoTemper Technologies, Munich, Germany). The raw data were then exported and plotted with Origin 2020b (OriginLab, Northampton, MA, USA).
# [3] = tested on: Flag-tagged SpCas9 protein expression; conditions: western blot, GAPDH loading control, concentrations tested
# Method: The reporter 293T cells were seeded into 96-well plates at a density of 10,000 cells per well and cultured overnight before the addition of DMSO alone or various compounds (in DMSO solution) at appropriate concentrations (0.125–100 μM) with or without 2 μg/mL doxycycline for an additional 72 h of incubation. The cells were then harvested for analysis with the CytoFLEX flow cytometer (Beckman Coulter, Brea, CA, USA) or analyzed by western blot with antibodies as indicated. […] The inhibiting efficiency in reporter 293T cells was calculated using the following equation: E’ = (P2 − P1)/(P0 − P1) × 100%, where E’ is the inhibiting efficiency in reporter 293T cells, and P0, P1, and P2 are the GFP positive cell ratio of the uninduced group, Dox and DMSO treated control group, and Dox and compound treated group, respectively.
# FITC-DNA = conditions: compared with DMSO, no SpCas9
# Method: The fluorescence polarization experiment was as previously reported [33]. […] The DNA was labeled at the 3′ end with fluorescein isothiocyanate (FITC). The other one is complementary to the first 58 bases of the previous oligonucleotide. These two oligonucleotides were annealed to generate the target DNA substrate labeled with fluorescent molecules (FITC-DNA). Unlabeled DNA (PAM-DNA) was considered competitive positive controls. Experiments were performed on black 384-well plates (Corning, New York, NY, USA). 50 nM SpCas9-gRNA (1:1) and different concentrations of the compound were added to the reaction buffer (50 mM Tris-HCl, pH 8.0, 0.1 M NaCl, 10 mM MgCl2, and 1 mM DTT). PAM-DNA (1250 nM) was used as a positive control. The mixture was then incubated at room temperature for 30 min, and FITC-DNA was added to the final concentration of 25 nM in each well. Fluorescence polarization signals were measured using a multilabel reader (Victor X5, PerkinElmer, Waltham, MA, USA) within 10 min. These values were plotted using GraphPad Prism 6.0 software (San Diego, CA, USA).
# SpCas9 [4] = target: T2, SpCas9 (Streptococcus pyogenes serotype M1, UniProt Q99ZW2); assay: On- and off-target editing at endogenous loci in iCas9 U2OS cells (deep sequencing); type: cell-based; set-up: expressed in transfected cells; conditions: +Dox
# Method: The iCas9-expressing U2OS cells were first through lentiviral infection. The cells were cultured with 1 μg/mL puromycin until all cells in the negative control group were dead. Monoclonal cells were then isolated and verified. Lentiviruses encoding appropriate gRNAs were used to infect the iCas9 U2OS cells, which were further selected with 10 μg/mL Blasticidin S HCL (Gibco, New York, NY, USA) until all cells in the control group were dead. The iCas9/gRNA cells were then plated in 12-well plates (Thermo Fisher Scientific) at ~40% confluence per well at 24 h before the doxycycline (2 μg/mL) addition. An individual inhibitor compound was also added at this point at the appropriate concentrations. DMSO alone served as the control. Cells cultured without doxycycline served as the SpCas9 cleavage control. After 24 h, cells were collected for genomic DNA extraction using the AxyPrep blood genomic DNA miniprep kit (Axygen, New York, NY, USA). Sequences surrounding the on- and off-target sites were amplified using barcoded primers (Supplementary Table S3) and the KOD PCR kit (Toyobo, Japan) to generate the sequencing libraries. Single-read sequencing of the pooled samples were performed on the 150 Hiseq 2000 (Illumina, San Diego, CA, USA). Each experiment was repeated twice. MATLAB was used to split the sequencing file and CRISPResso2 [38] was used to analyze the frequency of indels.
# SpCas9 [5] = target: T2, SpCas9; assay: Microscale thermophoresis (MST), SpCas9; type: binding; set-up: His6 (N); TEV site (N); made in house; host or cells: E. coli BL21 Star (DE3); conditions: SpCas9–EGFP fusion protein 200 nM, 25 °C
# Method: as §1
# SpCas9 [6] = target: T2, SpCas9; assay: Inhibition of SpCas9 nuclease activity in EGFP/iCas9/gRNA-EGFP reporter 293T cells (flow cytometry); type: cell-based; set-up: expressed in transfected cells; host or cells: H2AX-EGFP HEK293T cells, lentiviral transduction, doxycycline-induced
# Text: The H2AX-EGFP 293T cell line was first generated using the previously reported MMEJ-mediated CRIS-PITCh system. Briefly, we cloned two gRNAs (Supplementary Table S3) that respectively target H2AX gene and the PITCh vector into the px330 plasmid (Addgene, #42230). The PITCh vector contains a pair of 20-bp homologous sequences targeting the upstream and downstream regions of the H2AX gRNA cleavage site, and the SFB-EGFP expression cassette. The three plasmids were co-transfected into 293T cells at an equimolar ratio. GFP-positive cells were sorted by FACS and individually expanded to isolate single clones for genomic DNA extraction and PCR verification of successful knock-in (KI) of the SFB-EGFP cassette into 5′-end of first exon of the H2AX gene. The selected H2AX-EGFP 293T cell clone was subsequently infected with lentiviruses encoding tetracycline-inducible SpCas9 (iCas9). After drug selection, individual clones were again expanded and verified for inducible Cas9 expression. The selected clone was subsequently infected with lentivirus encoding a gRNA that targets EGFP. Puromycin-resistant clones ([…], Thermo Fisher Scientific) were then isolated after >7 days for further analysis.
# T1 sequence (Q99ZW2 whole entry, one chain of several): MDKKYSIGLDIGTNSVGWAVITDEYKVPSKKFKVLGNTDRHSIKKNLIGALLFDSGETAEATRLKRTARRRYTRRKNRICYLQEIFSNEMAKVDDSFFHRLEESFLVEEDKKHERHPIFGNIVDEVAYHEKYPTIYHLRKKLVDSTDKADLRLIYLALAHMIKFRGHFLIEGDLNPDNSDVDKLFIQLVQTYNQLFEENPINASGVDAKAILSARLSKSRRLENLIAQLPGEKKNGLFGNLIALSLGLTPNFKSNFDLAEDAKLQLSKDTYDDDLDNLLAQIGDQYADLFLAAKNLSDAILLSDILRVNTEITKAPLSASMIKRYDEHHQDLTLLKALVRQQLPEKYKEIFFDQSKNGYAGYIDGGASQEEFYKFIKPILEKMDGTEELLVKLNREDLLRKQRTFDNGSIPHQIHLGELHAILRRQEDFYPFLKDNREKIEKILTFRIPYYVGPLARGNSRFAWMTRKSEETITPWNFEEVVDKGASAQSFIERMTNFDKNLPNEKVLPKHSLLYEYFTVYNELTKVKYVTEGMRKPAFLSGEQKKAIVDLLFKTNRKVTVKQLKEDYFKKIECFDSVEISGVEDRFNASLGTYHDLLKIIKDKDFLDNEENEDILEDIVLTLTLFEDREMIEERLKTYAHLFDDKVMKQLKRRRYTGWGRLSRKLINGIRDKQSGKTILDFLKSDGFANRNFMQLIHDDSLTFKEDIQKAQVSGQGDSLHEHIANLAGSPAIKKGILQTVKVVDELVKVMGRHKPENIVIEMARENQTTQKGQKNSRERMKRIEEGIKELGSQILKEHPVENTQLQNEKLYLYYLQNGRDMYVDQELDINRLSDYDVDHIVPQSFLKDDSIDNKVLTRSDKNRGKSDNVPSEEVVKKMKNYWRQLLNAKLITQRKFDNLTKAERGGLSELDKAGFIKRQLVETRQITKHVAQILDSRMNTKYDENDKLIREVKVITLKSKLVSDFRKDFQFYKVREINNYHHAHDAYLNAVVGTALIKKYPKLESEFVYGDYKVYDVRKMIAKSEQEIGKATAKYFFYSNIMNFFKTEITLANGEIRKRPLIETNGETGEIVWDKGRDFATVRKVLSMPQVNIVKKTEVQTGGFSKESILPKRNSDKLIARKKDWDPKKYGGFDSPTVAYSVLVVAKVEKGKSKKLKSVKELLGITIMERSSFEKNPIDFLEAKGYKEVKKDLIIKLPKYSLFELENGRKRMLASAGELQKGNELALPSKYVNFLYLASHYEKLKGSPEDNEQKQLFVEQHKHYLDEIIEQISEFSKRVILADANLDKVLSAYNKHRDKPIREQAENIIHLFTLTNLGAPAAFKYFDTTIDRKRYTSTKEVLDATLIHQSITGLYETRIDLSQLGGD
# T2 sequence (Q99ZW2 whole entry): as the sequence (Q99ZW2 whole entry, one chain of several) above
smiles,measurement,setting,value
CC1(C)CC(=NNc2ccc([N+](=O)[O-])cc2[N+](=O)[O-])CC(C)(C)N1C(=O)COCC(=O)N1C(C)(C)CC(=NNc2ccc([N+](=O)[O-])cc2[N+](=O)[O-])CC1(C)C [SP2],inhibition of LbCas12a-mediated cleavage,LbCas12a,no inhibition
same,change of FP signals of SpCas9-gRNA and DNA,SpCas9–gRNA complex [1]; 50 μM,< 5%
same,Fluorescence Polarization (mP),"SpCas9–gRNA complex [1]; SpCas9+gRNA 50 nM, FITC-DNA 25 nM, compounds 50 μM, PAM-DNA 1.25 μM",160.5 mP
same,Fluorescence Polarization (mP),dSpCas9–gRNA complex,209.5 mP
same,EC50,SpCas9–gRNA complex [2],5.63 ± 3.65 µM
same,effect on SpCas9 expression,[3],Neither compound appeared to affect SpCas9 expression
same,effect on fluorescence polarization value of fluorescence-labeled DNA,FITC-DNA,did not affect
same,"reduction of SpCas9 off-target editing, EMX1-2",SpCas9 [4]; 2.5 μM,63.3%
same,Indel (%) EMX1-1 Off-target,"SpCas9 [4]; 24 h, SP2 2.5 μM, SP24 0.5 μM",21.7%
same,Indel (%) EMX1-1 On-target,"SpCas9 [4]; 24 h, SP2 2.5 μM, SP24 0.5 μM",42.2%
same,Indel (%) EMX1-2 Off-target,"SpCas9 [4]; 24 h, SP2 2.5 μM, SP24 0.5 μM",1.1%
same,Indel (%) EMX1-2 On-target,"SpCas9 [4]; 24 h, SP2 2.5 μM, SP24 0.5 μM",~ 18% and 17.8%
same,Indel (%) ZSCAN2 Off-target,"SpCas9 [4]; 24 h, SP2 2.5 μM, SP24 0.5 μM",6.7%
same,Indel (%) ZSCAN2 On-target,"SpCas9 [4]; 24 h, SP2 2.5 μM, SP24 0.5 μM",32.2%
same,"ratio of on-target vs. off-target indels, EMX1-1","SpCas9 [4]; 24 h, SP2 2.5 μM, SP24 0.5 μM",1.94 x
same,"ratio of on-target vs. off-target indels, EMX1-2","SpCas9 [4]; 24 h, SP2 2.5 μM, SP24 0.5 μM",16.18 x
same,"ratio of on-target vs. off-target indels, ZSCAN2","SpCas9 [4]; 24 h, SP2 2.5 μM, SP24 0.5 μM",4.81 x
same,Indel (%) VEGFA-3 Off-target,"SpCas9 [4]; 24 h, SP2 2.5 μM, SP24 1 μM",1.4%
same,Indel (%) VEGFA-3 On-target,"SpCas9 [4]; 24 h, SP2 2.5 μM, SP24 1 μM",35.2%
same,"ratio of on-target vs. off-target indels, VEGFA-3","SpCas9 [4]; 24 h, SP2 2.5 μM, SP24 1 μM",25.14 x
same,EC50,SpCas9 [5],44.2 ± 35.4 µM
same,SpCas9 inhibition in reporter cells,"SpCas9 [6]; 10 μM, Dox 2 μg/mL, 72 h",50%
same,inhibitory activity in reporter cells (in words),SpCas9 [6]; from 40 to 2 μM,changed little
same,EC50,"SpCas9 [6]; titration, Dox 2 μg/mL, 72 h, flow cytometry",5.07 µM
